From ChEMBL document CHEMBL4602685, “Yanhusanines A-F, Isoquinoline-Derived Alkaloid Enantiomers from Corydalis yanhusuo and Their Biological Activity” (J Nat Prod, 2020)
Calls of active or inactive are those of the source. The rule behind the calls is not given here.

Columns and labels:
Liver carboxylesterase 1 = target: T1, Liver carboxylesterase 1 (Homo sapiens, UniProt P23141); assay: Inhibition of human CE1 using D-luciferin methyl ester as substrate preincubated for 10 mins followed by substrate addition and measured after 10 mins by luminescence assay
T1 sequence (P23141 whole entry): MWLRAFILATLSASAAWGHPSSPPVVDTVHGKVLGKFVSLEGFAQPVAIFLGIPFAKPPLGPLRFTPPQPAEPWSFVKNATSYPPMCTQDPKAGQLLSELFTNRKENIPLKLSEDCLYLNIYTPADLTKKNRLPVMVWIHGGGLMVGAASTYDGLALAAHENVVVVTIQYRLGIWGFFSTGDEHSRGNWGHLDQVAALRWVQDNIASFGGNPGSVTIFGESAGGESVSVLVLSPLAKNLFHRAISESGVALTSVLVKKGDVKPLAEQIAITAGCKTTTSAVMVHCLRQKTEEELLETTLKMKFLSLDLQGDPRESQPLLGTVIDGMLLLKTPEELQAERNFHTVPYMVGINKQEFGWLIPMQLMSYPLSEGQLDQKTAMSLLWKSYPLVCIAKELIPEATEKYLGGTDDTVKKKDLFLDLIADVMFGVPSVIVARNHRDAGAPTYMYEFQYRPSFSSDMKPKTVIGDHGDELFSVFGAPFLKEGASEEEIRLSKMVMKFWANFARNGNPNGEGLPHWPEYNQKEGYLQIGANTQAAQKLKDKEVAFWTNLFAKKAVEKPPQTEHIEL

Cocaine esterase = target: T2, Cocaine esterase (Homo sapiens, UniProt O00748); assay: Inhibition of human CE2 using fluorescein diacetate as substrate preincubated for 10 mins followed by substrate addition and measured after 10 mins by luminescence assay
T2 sequence (O00748 whole entry): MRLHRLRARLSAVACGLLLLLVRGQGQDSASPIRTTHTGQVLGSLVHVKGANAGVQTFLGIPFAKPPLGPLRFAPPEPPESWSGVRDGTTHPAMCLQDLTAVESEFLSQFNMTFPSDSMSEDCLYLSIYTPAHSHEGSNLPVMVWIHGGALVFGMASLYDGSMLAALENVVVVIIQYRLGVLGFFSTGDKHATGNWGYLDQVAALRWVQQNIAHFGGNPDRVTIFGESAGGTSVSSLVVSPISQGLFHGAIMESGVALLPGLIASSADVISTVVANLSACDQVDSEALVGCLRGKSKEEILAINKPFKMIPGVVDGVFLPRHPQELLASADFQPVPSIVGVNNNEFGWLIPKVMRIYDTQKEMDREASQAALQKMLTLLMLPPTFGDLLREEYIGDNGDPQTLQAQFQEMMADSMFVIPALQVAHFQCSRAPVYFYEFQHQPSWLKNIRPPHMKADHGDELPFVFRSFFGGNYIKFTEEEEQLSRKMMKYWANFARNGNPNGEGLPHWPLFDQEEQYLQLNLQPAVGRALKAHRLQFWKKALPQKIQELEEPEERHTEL

Homo sapiens = species on record: Homo sapiens; assay: Selectivity ratio of IC50 for inhibition of human CE1 […]
[1] = target: T3, Tyrosine-protein phosphatase non-receptor type 1 (Homo sapiens) (UniProt P18031); assay: Inhibition of recombinant human GST-tagged PTP1B using para-nitrophenyl phosphate as substrate incubated for 10 mins by spectrophotometric method
T3 sequence (whole entry): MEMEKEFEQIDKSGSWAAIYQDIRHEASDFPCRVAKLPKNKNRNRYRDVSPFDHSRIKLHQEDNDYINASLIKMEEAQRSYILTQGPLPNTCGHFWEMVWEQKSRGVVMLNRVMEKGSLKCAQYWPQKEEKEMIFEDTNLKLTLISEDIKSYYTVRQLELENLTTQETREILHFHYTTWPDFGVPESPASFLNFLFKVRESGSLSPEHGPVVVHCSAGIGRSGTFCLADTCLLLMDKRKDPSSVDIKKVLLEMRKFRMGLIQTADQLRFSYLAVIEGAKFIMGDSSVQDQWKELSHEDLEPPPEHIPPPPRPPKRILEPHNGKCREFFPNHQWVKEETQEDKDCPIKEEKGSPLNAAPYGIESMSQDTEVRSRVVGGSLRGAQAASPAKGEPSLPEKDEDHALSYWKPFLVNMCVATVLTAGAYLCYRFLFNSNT

HepG2 = assay: Cytoprotection activity in human HepG2 cells assessed as reduction in acetaminophen-induced cell injury after 48 hrs by MTT assay; format: functional, cell-based
Peritoneal macrophage = assay: Antiinflammatory activity in C57BL/6J mouse Peritoneal macrophages assessed as reduction in LPS-induced TNFalpha secretion after 24 hrs; format: functional, cell-based
A2780 = assay: Cytotoxicity against human A2780 cells assessed as reduction in cell viability after 24 hrs by MTT assay; format: functional, cell-based
HCT-8 = assay: Cytotoxicity against human HCT8 cells assessed as reduction in cell viability after 24 hrs by MTT assay; format: functional, cell-based
Bel-7402 = assay: Cytotoxicity against human Bel7402 cells assessed as reduction in cell viability after 24 hrs by MTT assay; format: functional, cell-based
BGC-823 = assay: Cytotoxicity against human BGC823 cells assessed as reduction in cell viability after 24 hrs by MTT assay; format: functional, cell-based
A549 = assay: Cytotoxicity against human A549 cells assessed as reduction in cell viability after 24 hrs by MTT assay; format: functional, cell-based
Staphylococcus aureus = assay: Antimicrobial activity against Staphylococcus aureus ATCC 25923 assessed as reduction in microbial growth after 24 hrs by CLSI based broth microdilution method; format: functional, organism-based
[2] = tested on: Staphylococcus epidermidis; assay: Antimicrobial activity against Staphylococcus epidermidis ATCC 12228 assessed as reduction in microbial growth after 24 hrs by CLSI based broth microdilution method; format: functional, organism-based
Escherichia coli = assay: Antimicrobial activity against Escherichia coli ATCC 25922 assessed as reduction in microbial growth after 24 hrs by CLSI based broth microdilution method; format: functional, organism-based
[3] = tested on: Mycolicibacterium smegmatis; assay: Antimicrobial activity against Mycobacterium smegmatis MC2155 […] assessed as reduction in microbial growth after 24 hrs by CLSI based broth microdilution method; format: functional, organism-based

SMILES | IC50 (Liver carboxylesterase 1) | IC50 (Cocaine esterase) | Ratio IC50 (Homo sapiens) | inhibition [1] | Activity (HepG2) | Activity (Peritoneal macrophage) | Activity (A2780) | Activity (HCT-8) | Activity (Bel-7402) | Activity (BGC-823) | Activity (A549) | Activity (Staphylococcus aureus) | Activity [2] | Activity (Escherichia coli) | Activity [3]
COc1cc2ccnc([C@@]3(C)OC(=O)c4c3ccc(OC)c4OC)c2cc1OC | > 100 µM | 2 µM | 49.3 | inactive | inactive | inactive | inactive | inactive | inactive | inactive | inactive | inactive | inactive | inactive | inactive
O=[N+]([O-])c1ccc(OP(=O)(O)Oc2ccc([N+](=O)[O-])cc2)cc1 | 0.2 µM | – | – | – | – | – | – | – | – | – | – | – | – | – | –
COc1cc2c(cc1OC)C([C@@](C)(OC)c1ccc(OC)c(OC)c1O)=NCC2 | > 100 µM | 9.3 µM | 10.8 | inactive | inactive | inactive | inactive | inactive | inactive | inactive | inactive | inactive | inactive | inactive | inactive
COc1cc2cc[n+]3c(c2cc1OC)[C@@](C)(O)c1ccc(OC)c(OC)c1C3 | > 100 µM | 4.6 µM | 21.8 | inactive | inactive | inactive | inactive | inactive | inactive | inactive | inactive | inactive | inactive | inactive | inactive
COc1cc2ccnc([C@]3(C)OC(=O)c4c3ccc(OC)c4OC)c2cc1OC | > 100 µM | 3.5 µM | 28.9 | inactive | inactive | inactive | inactive | inactive | inactive | inactive | inactive | inactive | inactive | inactive | inactive
COc1cc2ccnc([C@@H](C)c3ccc(OC)c(OC)c3O)c2cc1OC | – | > 100 µM | – | inactive | inactive | inactive | inactive | inactive | inactive | inactive | inactive | inactive | inactive | inactive | inactive
COc1cc2c(cc1OC)C([C@](C)(OC)c1ccc(OC)c(OC)c1O)=NCC2 | > 100 µM | 5 µM | 20 | inactive | inactive | inactive | inactive | inactive | inactive | inactive | inactive | inactive | inactive | inactive | inactive
COc1cc2c(cc1OC)[C@]1(Oc3c(ccc(OC)c3OC)[C@@]1(C)O)N(C=O)CC2 | > 100 µM | – | – | inactive | inactive | inactive | inactive | inactive | inactive | inactive | inactive | inactive | inactive | inactive | inactive
COc1cc2c(cc1OC)[C@@]1(Oc3c(ccc(OC)c3OC)[C@]1(C)O)N(C=O)CC2 | > 100 µM | – | – | inactive | inactive | inactive | inactive | inactive | inactive | inactive | inactive | inactive | inactive | inactive | inactive
COc1cc2c(cc1OC)C([C@H](C)c1ccc(OC)c(OC)c1O)=NCC2 | > 100 µM | 7.1 µM | 14.1 | inactive | inactive | inactive | inactive | inactive | inactive | inactive | inactive | inactive | inactive | inactive | inactive
COc1cc2cc[n+]3c(c2cc1OC)[C@](C)(O)c1ccc(OC)c(OC)c1C3 | > 100 µM | 13.2 µM | 7.6 | inactive | inactive | inactive | inactive | inactive | inactive | inactive | inactive | inactive | inactive | inactive | inactive
COc1cc2ccnc([C@H](C)c3ccc(OC)c(OC)c3O)c2cc1OC | – | > 100 µM | – | inactive | inactive | inactive | inactive | inactive | inactive | inactive | inactive | inactive | inactive | inactive | inactive
COc1cc2c(cc1OC)C([C@@H](C)c1ccc(OC)c(OC)c1O)=NCC2 | > 100 µM | 8.7 µM | 11.6 | inactive | inactive | inactive | inactive | inactive | inactive | inactive | inactive | inactive | inactive | inactive | inactive
